Results reported in US5072011A, “Pt(IV) complexes” (Johnson Matthey, Inc., priority 1990, dated 1991).

Key:
[1] = common organic solvents, e.g., acetone, methylene chloride; cited from earlier work
ADJ/PC6 tumor = assay: antitumor activity using ADJ/PC6 tumor in mice; type: in vivo; conditions: for P.O. ED90 / P.O. TI: oral (P.O.); for P.O. TI / I.P. TI: TI from LD50 and ED90; for I.P. ED90 / I.P. TI: parenteral (I.P.)
Protocol: (§1) Complexes according to the invention were tested for antitumor activity using ADJ/PC6 tumor in mice. The complexes were administered parenterally (I.P.) or orally (P.O.).

mice = assay: lethality (LD50) in mice, ADJ/PC6 antitumor test; type: in vivo; conditions: for P.O. LD50: oral (P.O.); for I.P. LD50: parenteral (I.P.)
Protocol: as §1

| Compound | solubility in water / organic solvents (in words), prior-art complexes [1] | P.O. ED90 (ADJ/PC6 tumor) [mg/kg] | P.O. TI (ADJ/PC6 tumor) | I.P. ED90 (ADJ/PC6 tumor) [mg/kg] | I.P. TI (ADJ/PC6 tumor) | P.O. LD50 (mice) [mg/kg] | I.P. LD50 (mice) [mg/kg] |
| --- | --- | --- | --- | --- | --- | --- | --- |
| N.N.O=C([O-])C1(C(=O)[O-])CCC1.[Pt+2] [carboplatin] | dissolve more readily in water than they do in common organic solvents | – | – | – | – | – | – |
| c-t-c-PtCl2 (O2 CCH2 CH3)2 (NH3)(n-C3 H7 NH2) [Compound 9 (Table 2)] | – | 8.6 | 13.7 | 5.6 | 7.4 | 118 | 41.5 |
| c-t-c-PtCl2 (O2 CCH3)2 (NH3)(n-C3 H7 NH2) [Compound 8 (Table 2)] | – | 18 | 13.1 | 3.1 | 11.3 | 235 | 35 |
